According to patent US8962596B2 (Array BioPharma Inc., priority 2010, dated 2015):
Structures can show the parent of a compound that is named as a salt.

Key:
Type in all cases: biochemical
Human Tyk2 kinase domain = biological target: T1, Human Tyk2 kinase domain (Homo sapiens, UniProt P29597); test: Tyk2 Inhibition Assay (Omnia kinase fluorescence peptide substrate assay); details: averaged IC50 ranges; assay of Example A; 10 μM (Km app) or 1 mM ATP, 2 nM Tyk2
T1 construct: comprising amino acids 886 to 1187 with 10 additional histidine residues; 10xHis (histidine tag) (C, cleaved yes); made in house
T1 sequence (P29597 886-1187): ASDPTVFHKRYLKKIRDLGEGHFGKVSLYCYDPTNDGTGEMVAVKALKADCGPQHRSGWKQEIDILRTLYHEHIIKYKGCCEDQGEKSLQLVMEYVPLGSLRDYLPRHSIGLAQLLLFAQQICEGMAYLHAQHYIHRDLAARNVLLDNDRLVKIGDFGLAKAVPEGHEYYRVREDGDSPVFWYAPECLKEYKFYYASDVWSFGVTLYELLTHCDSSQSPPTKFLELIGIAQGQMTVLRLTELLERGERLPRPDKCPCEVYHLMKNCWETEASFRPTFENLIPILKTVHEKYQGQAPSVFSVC
In short: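 2 nM His-tag-cleaved kinase domain (aa 886–1187) with 8 μM Omnia Y12 peptide, 10 μM (Km app) or 1 mM ATP, pH 7.4 HEPES/10 mM MgCl2, 2% DMSO. Fluorescence (ex 360/em 485 nm) every 50 s for 45 min; IC50 from 4-parameter fit of POC, top dose 10 μM.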

JAK3 = biological target: T2, JAK3 (Homo sapiens, UniProt P52333); test: JAK3 Inhibition Assay (Omnia kinase fluorescence peptide substrate assay); details: averaged IC50 ranges; assay of Example D; 10 μM (Km app) or 1 mM ATP, 2.5 nM JAK3
T2 construct: purchased Invitrogen Corporation, Carlsbad, Calif; PV4080
T2 sequence (P52333 1-1124): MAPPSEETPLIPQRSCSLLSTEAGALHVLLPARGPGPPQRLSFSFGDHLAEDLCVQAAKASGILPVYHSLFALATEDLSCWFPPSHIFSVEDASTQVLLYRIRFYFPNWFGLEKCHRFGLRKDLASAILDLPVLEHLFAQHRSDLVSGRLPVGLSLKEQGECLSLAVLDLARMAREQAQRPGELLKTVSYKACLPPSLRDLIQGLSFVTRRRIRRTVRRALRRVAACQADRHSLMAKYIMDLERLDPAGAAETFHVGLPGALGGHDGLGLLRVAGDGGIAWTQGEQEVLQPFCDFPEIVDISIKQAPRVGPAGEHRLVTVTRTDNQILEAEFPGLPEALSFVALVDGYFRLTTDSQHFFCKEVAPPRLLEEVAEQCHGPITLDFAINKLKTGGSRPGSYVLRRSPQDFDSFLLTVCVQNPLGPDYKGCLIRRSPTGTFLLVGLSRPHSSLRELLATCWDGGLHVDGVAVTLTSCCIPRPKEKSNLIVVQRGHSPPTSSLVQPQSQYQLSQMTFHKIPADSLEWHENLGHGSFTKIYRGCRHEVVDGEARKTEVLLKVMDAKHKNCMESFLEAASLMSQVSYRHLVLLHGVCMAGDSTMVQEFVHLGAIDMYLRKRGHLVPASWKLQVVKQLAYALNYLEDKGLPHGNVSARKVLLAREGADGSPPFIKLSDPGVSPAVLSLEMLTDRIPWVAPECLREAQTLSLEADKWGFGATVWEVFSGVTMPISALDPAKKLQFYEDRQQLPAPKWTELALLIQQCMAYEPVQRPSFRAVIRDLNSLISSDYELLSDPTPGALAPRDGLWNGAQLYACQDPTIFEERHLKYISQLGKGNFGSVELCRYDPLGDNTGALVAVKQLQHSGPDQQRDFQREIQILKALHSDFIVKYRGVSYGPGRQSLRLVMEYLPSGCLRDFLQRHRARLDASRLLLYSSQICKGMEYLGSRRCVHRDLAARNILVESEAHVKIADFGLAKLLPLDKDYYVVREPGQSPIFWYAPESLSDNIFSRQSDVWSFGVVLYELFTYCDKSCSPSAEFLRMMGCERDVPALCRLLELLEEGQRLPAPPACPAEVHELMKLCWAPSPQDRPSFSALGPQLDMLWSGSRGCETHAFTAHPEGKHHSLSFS
In short: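 Kinase at 2.5 nM with 10 µM Omnia Y7 peptide and 10 µM (Km app) or 1 mM ATP in 25 mM HEPES pH 7.4, 10 mM MgCl2, 1 mM DTT, 0.01% Triton X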

JAK1 = biological target: T3, JAK1 (Homo sapiens, UniProt P23458); test: JAK1 Inhibition Assay (Omnia kinase fluorescence peptide substrate assay); details: averaged IC50 ranges; assay of Example B; 40 μM (Km app) or 1 mM ATP, 15 nM JAK1
T3 construct: purchased Invitrogen Corporation, Carlsbad, Calif; PV4775
T3 sequence (P23458 whole entry): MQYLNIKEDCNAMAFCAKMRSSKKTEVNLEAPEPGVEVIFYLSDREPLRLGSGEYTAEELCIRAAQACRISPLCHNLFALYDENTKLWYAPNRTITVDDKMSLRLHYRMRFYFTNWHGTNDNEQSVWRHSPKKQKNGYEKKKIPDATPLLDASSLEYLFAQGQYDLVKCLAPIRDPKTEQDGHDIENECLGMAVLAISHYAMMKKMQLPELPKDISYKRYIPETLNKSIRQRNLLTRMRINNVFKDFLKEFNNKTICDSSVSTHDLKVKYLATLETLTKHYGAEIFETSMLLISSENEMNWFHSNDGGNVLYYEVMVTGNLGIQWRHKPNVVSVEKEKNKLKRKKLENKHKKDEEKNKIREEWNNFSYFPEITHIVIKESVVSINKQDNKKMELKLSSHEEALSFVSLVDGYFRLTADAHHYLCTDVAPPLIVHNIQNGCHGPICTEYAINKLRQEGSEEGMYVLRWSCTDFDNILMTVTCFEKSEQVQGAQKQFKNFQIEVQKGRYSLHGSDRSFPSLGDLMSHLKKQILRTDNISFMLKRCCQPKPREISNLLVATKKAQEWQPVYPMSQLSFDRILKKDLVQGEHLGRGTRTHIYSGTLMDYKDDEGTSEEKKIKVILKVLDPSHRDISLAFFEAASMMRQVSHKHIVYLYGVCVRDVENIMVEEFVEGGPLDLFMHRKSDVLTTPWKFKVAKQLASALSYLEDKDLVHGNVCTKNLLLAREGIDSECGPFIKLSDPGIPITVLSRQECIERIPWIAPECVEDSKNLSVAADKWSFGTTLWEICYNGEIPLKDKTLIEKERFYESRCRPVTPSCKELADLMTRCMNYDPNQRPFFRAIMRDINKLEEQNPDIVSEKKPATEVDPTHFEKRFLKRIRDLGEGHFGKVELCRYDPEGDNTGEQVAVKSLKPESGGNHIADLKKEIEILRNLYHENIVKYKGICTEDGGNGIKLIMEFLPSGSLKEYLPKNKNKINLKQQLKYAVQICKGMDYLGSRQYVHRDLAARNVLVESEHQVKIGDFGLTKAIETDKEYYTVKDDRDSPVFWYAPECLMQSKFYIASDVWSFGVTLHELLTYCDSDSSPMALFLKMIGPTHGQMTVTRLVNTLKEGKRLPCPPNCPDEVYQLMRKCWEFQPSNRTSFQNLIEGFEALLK

JAK2 = biological target: T4, JAK2 (Homo sapiens, UniProt O60674); test: JAK2 Inhibition Assay (Omnia kinase fluorescence peptide substrate assay); details: averaged IC50 ranges; assay of Example C; 25 μM (Km app) or 1 mM ATP, 5 nM JAK2
T4 construct: purchased Invitrogen Corporation, Carlsbad, Calif; PV4288
T4 sequence (O60674 whole entry): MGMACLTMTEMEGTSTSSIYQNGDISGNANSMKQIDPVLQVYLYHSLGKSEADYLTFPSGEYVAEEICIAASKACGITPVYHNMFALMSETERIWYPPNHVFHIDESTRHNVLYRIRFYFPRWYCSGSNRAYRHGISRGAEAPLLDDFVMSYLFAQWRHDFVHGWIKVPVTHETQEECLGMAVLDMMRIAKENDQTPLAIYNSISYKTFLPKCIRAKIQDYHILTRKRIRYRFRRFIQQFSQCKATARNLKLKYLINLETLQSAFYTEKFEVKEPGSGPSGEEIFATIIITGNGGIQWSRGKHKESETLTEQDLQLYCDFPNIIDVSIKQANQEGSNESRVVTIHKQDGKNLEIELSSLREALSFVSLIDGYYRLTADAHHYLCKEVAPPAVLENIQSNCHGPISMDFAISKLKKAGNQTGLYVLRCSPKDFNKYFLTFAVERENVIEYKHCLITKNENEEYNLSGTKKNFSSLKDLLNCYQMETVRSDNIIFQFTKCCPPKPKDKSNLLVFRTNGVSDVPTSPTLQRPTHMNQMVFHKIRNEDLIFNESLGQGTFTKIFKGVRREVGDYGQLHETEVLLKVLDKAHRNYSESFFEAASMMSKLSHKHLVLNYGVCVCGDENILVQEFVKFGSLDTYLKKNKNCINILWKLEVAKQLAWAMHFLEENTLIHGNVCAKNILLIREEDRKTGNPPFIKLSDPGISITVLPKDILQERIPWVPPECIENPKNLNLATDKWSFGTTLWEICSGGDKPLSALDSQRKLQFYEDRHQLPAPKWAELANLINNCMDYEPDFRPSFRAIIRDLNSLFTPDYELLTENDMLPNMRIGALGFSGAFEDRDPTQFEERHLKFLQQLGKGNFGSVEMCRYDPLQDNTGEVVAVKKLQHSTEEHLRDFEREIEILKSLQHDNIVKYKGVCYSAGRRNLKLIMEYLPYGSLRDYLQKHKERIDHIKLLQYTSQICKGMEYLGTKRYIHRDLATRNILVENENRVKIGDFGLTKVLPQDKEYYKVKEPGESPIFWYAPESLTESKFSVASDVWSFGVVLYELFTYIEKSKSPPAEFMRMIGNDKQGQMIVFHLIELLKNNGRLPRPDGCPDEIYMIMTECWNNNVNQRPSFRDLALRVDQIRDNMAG
In short: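 5 nM JAK2 phosphorylated 10 μM Omnia Y7 peptide with ATP at 25 μM (Km app) or 1 mM, in 25 mM HEPES pH 7.4, 10 mM MgCl2, 0.01% Triton X-100, 1 mM DTT, 2% DMSO. Fluorescence (360/485 nm) was read every 50 s for 45 min. 10-point 3-fold series from 10 μM; POC versus uninhibited and background controls, 4-parameter logistic IC50.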

Compound | IC50 (Human Tyk2 kinase domain) [µM] | IC50 (JAK3) [µM] | IC50 (JAK1) [µM] | IC50 (JAK2) [µM]
Cn1cc(-c2cc3nccn3c(-c3cnn(C4(CC#N)CNC4)c3)n2)cn1 [Example 62, 2-(3-(4-(7-(1-Methyl-1H-pyrazol-4-yl)imidazo[1,2-c]pyrimidin-5-yl)-1H-pyrazol-1-yl)azetidin-3-yl)acetonitrile hydrochloride] | 0.1 to 1 | > 1 | > 1 | > 1
Cn1cc(-c2cc3nccn3c(-c3cnn(C4(CC#N)CN(C(=O)OC(C)(C)C)C4)c3)n2)cn1 [Example 61, Tert-butyl 3-(cyanomethyl)-3-(4-(7-(1-methyl-1H-pyrazol-4-yl)imidazo[1,2-c]pyrimidin-5-yl)-1H-pyrazol-1-yl)azetidine-1-carboxylate] | 0.1 to 1 | > 1 | > 1 | 0.1 to 1
Cn1cc(-c2cc3nccn3c(-c3cnn(C(CC#N)c4ccccn4)c3)n2)cn1 (centres unmarked) [Example 6, 3-(4-(7-(1-methyl-1H-pyrazol-4-yl)imidazo[1,2-c]pyrimidin-5-yl)-1H-pyrazol-1-yl)-3-(pyridin-2-yl)propanenitrile] | 0.01 to 0.1 | > 1 | 0.1 to 1 | 0.01 to 0.1
COc1cncc(C(CC#N)n2cc(-c3nc(-c4cnn(C)c4)cc4nccn34)cn2)c1 (centres unmarked) [Example 9, 3-(5-methoxypyridin-3-yl)-3-(4-(7-(1-methyl-1H-pyrazol-4-yl)imidazo[1,2-c]pyrimidin-5-yl)-1H-pyrazol-1-yl)propanenitrile] | 0.01 to 0.1 | > 1 | 0.1 to 1 | 0.01 to 0.1
CC(C#N)Cn1cc(-c2nc(-c3ccc(N4CCOCC4)cc3)cc3nccn23)cn1 (centres unmarked) [Example 119, 2-methyl-3-(4-(7-(4-morpholinophenyl)imidazo[1,2-c]pyrimidin-5-yl)-1H-pyrazol-1-yl)propanenitrile] | 0.01 to 0.1 | 0.1 to 1 | 0.01 to 0.1 | 0.01 to 0.1
N#CCC(C1CC1)n1cc(-c2nc(-c3cnc4n3CCNC4)cc3nccn23)cn1 (centres unmarked) [Example 56, 3-Cyclopropyl-3-(4-(7-(5,6,7,8-tetrahydroimidazo[1,2-a]pyrazin-3-yl)imidazo[1,2-c]pyrimidin-5-yl)-1H-pyrazol-1-yl)propanenitrile] | 0.1 to 1 | > 1 | > 1 | 0.1 to 1
Cc1cc(-c2cc3nccn3c(-c3cnn(C(CC#N)C4CC4)c3)n2)ccn1 (centres unmarked) [Example 50, 3-cyclopropyl-3-(4-(7-(2-methylpyridin-4-yl)imidazo[1,2-c]pyrimidin-5-yl)-1H-pyrazol-1-yl)propanenitrile] | 0.01 to 0.1 | > 1 | 0.1 to 1 | 0.1 to 1
Cn1cc(-c2cc3nccn3c(-c3cnn(C4(CC#N)COC4)c3)n2)cn1 [Example 24, 2-(3-(4-(7-(1-methyl-1H-pyrazol-4-yl)imidazo[1,2-c]pyrimidin-5-yl)-1H-pyrazol-1-yl)oxetan-3-yl)acetonitrile] | 0.01 to 0.1 | > 1 | 0.01 to 0.1 | 0.01 to 0.1

Second part, the molecule after the results:

IC50 (Human Tyk2 kinase domain) [µM] | IC50 (JAK3) [µM] | IC50 (JAK1) [µM] | IC50 (JAK2) [µM] | Compound
< 0.01 | > 1 | 0.1 to 1 | 0.01 to 0.1 | Cn1cc(-c2cc3nccn3c(-c3cnn(C4(CC#N)CC5(CCOCC5)C4)c3)n2)cn1 [Example 150, 2-(2-(4-(7-(1-methyl-1H-pyrazol-4-yl)imidazo[1,2-c]pyrimidin-5-yl)-1H-pyrazol-1-yl)-7-oxaspiro[3.5]nonan-2-yl)acetonitrile]
0.01 to 0.1 | > 1 | > 1 | 0.1 to 1 | Cn1cc(-c2cc3nccn3c(-c3ccn(C4(CC#N)CN(CC(F)(F)F)C4)n3)n2)cn1 [Example 131, 2-(3-(3-(7-(1-Methyl-1H-pyrazol-4-yl)imidazo[1,2-c]pyrimidin-5-yl)-1H-pyrazol-1-yl)-1-(2,2,2-trifluoroethyl)azetidin-3-yl)acetonitrile]
0.01 to 0.1 | > 1 | 0.1 to 1 | 0.1 to 1 | CC(C)S(=O)(=O)N1CC(CC#N)(n2cc(-c3nc(-c4cnn(C)c4)cc4nccn34)cn2)C1 [Example 91, 2-(1-(Isopropylsulfonyl)-3-(4-(7-(1-methyl-1H-pyrazol-4-yl)imidazo[1,2-c]pyrimidin-5-yl)-1H-pyrazol-1-yl)azetidin-3-yl)acetonitrile]
0.01 to 0.1 | 0.1 to 1 | > 1 | 0.1 to 1 | Cn1cc(-c2cc3nccn3c(-c3ccn(C(CC#N)C4CC4)n3)n2)cn1 (centres unmarked) [Example 132, 3-Cyclopropyl-3-(3-(7-(1-methyl-1H-pyrazol-4-yl)imidazo[1,2-c]pyrimidin-5-yl)-1H-pyrazol-1-yl)propanenitrile]
< 0.01 | 0.1 to 1 | 0.01 to 0.1 | 0.01 to 0.1 | Cn1cc(-c2ccc(-c3cc4nccn4c(-c4cnn(C(CC#N)C5CC5)c4)n3)cc2)cn1 (centres unmarked) [Example 60, 3-Cyclopropyl-3 (4 (7 (4 (1 methyl-1H-pyrazol-4-yl)phenyl)imidazo[1,2-c]pyrimidin-5-yl)-1H-pyrazol-1-yl)propanenitrile]
< 0.01 | > 1 | 0.1 to 1 | 0.01 to 0.1 | CCS(=O)(=O)N1CC(CC#N)(n2cc(-c3nc(-c4cnn(C)c4)cc4nccn34)cn2)C1 [Example 97, 2-(1-(ethylsulfonyl)-3-(4-(7-(1-methyl-1H-pyrazol-4-yl)imidazo[1,2-c]pyrimidin-5-yl)-1H-pyrazol-1-yl)azetidin-3-yl)acetonitrile]
< 0.01 | 0.1 to 1 | < 0.01 | 0.01 to 0.1 | COc1ccc(-c2cc3nccn3c(-c3cnn(C4(CC#N)CN(S(=O)(=O)C(F)(F)F)C4)c3)n2)cc1 [Example 158, 2-(3-(4-(7-(4-methoxyphenyl)imidazo[1,2-c]pyrimidin-5-yl)-1H-pyrazol-1-yl)-1-(trifluoromethylsulfonyl)azetidin-3-yl)acetonitrile]
< 0.01 | > 1 | 0.1 to 1 | 0.01 to 0.1 | Cc1nn(C(CC#N)C2CCCC2)cc1-c1nc(-c2ccc(N3CCOCC3)cc2)cc2nccn12 (centres unmarked) [Example 121, 3-Cyclopentyl-3-(3-methyl-4-(7-(4-morpholinophenyl)imidazo[1,2-c]pyrimidin-5-yl)-1H-pyrazol-1-yl)propanenitrile]
< 0.01 | 0.1 to 1 | 0.01 to 0.1 | < 0.01 | Cn1cc(-c2cc3ncc(F)n3c(-c3cnn(C4(CC#N)CN(S(=O)(=O)C(F)(F)F)C4)c3)n2)cn1 [Example 154, 2-(3-(4-(3-fluoro-7-(1-methyl-1H-pyrazol-4-yl)imidazo[1,2-c]pyrimidin-5-yl)-1H-pyrazol-1-Y1)-1-((trifluoromethyl)sulfonyl)azetidin-3-yl)acetonitrile]
